pIC50: −log10 of the molar value. “Also recorded” adds a separate entry of the source.
Key:
[1] = tested on: incision-induced pain in mice; test: Incision-induced acute pain in mice, von Frey test; type: in vivo, mouse; conditions: 30 mg/kg I.P.
Protocol: FIG. 9. Effects of EXAMPLE-116, -118 or ML218 (a reference compound) on incision-induced acute pain in mice (C57BL/6, male, ˜2 months old; n=8 mice per treatment group). Mechanical pain threshold assessment (von Frey monofilament test) of the mice's incision left hindpaws. Each mouse received either EXAMPLE-116, -118, or ML218 (as a reference compound, each 30 mg/kg, I.P.) or vehicle (2% DMSO in 0.5% HPC, I.P.). Mechanical pain responses were measured at 0.5, 1, 2, 4, and 5 hours after treatment.
To further confirm the Cav3 modulator effects on acute pain and neurogenic inflammatory pain, an incision-pain mode in mice was used. Postoperative pain model induced by a deep incision in the hindpaw produces robust mechanical allodynia (Pogatzki et al., 2003). Mechanical pain thresholds were assessed using von Frey monofilament test of the incised left hindpaws. Each mouse received either EXAMPLE-116, -118, ML218 (as a reference compound, each 30 mg/kg, I.P.) or vehicle (2% DMSO in 0.5% HPC, I.P., n=8 mice per treatment group). Mechanical pain responses were measured at 0.5, 1, 2, 4, and 5 hours after treatment.

Cav3.2 channel = biological target: T1, Cav3.2 channel (Homo sapiens, UniProt O95180); test: Whole-cell patch clamp of T-type Cav3.2 channel expressed in HEK293 cells; type: cell-based; conditions: for inhibition at 1 µM: HEK293, Table 1 primary screening
T1 construct: expressed in transfected cells; host or cells: HEK-293, tetracycline inducible expression system (Invitrogen)
T1 sequence (O95180 whole entry): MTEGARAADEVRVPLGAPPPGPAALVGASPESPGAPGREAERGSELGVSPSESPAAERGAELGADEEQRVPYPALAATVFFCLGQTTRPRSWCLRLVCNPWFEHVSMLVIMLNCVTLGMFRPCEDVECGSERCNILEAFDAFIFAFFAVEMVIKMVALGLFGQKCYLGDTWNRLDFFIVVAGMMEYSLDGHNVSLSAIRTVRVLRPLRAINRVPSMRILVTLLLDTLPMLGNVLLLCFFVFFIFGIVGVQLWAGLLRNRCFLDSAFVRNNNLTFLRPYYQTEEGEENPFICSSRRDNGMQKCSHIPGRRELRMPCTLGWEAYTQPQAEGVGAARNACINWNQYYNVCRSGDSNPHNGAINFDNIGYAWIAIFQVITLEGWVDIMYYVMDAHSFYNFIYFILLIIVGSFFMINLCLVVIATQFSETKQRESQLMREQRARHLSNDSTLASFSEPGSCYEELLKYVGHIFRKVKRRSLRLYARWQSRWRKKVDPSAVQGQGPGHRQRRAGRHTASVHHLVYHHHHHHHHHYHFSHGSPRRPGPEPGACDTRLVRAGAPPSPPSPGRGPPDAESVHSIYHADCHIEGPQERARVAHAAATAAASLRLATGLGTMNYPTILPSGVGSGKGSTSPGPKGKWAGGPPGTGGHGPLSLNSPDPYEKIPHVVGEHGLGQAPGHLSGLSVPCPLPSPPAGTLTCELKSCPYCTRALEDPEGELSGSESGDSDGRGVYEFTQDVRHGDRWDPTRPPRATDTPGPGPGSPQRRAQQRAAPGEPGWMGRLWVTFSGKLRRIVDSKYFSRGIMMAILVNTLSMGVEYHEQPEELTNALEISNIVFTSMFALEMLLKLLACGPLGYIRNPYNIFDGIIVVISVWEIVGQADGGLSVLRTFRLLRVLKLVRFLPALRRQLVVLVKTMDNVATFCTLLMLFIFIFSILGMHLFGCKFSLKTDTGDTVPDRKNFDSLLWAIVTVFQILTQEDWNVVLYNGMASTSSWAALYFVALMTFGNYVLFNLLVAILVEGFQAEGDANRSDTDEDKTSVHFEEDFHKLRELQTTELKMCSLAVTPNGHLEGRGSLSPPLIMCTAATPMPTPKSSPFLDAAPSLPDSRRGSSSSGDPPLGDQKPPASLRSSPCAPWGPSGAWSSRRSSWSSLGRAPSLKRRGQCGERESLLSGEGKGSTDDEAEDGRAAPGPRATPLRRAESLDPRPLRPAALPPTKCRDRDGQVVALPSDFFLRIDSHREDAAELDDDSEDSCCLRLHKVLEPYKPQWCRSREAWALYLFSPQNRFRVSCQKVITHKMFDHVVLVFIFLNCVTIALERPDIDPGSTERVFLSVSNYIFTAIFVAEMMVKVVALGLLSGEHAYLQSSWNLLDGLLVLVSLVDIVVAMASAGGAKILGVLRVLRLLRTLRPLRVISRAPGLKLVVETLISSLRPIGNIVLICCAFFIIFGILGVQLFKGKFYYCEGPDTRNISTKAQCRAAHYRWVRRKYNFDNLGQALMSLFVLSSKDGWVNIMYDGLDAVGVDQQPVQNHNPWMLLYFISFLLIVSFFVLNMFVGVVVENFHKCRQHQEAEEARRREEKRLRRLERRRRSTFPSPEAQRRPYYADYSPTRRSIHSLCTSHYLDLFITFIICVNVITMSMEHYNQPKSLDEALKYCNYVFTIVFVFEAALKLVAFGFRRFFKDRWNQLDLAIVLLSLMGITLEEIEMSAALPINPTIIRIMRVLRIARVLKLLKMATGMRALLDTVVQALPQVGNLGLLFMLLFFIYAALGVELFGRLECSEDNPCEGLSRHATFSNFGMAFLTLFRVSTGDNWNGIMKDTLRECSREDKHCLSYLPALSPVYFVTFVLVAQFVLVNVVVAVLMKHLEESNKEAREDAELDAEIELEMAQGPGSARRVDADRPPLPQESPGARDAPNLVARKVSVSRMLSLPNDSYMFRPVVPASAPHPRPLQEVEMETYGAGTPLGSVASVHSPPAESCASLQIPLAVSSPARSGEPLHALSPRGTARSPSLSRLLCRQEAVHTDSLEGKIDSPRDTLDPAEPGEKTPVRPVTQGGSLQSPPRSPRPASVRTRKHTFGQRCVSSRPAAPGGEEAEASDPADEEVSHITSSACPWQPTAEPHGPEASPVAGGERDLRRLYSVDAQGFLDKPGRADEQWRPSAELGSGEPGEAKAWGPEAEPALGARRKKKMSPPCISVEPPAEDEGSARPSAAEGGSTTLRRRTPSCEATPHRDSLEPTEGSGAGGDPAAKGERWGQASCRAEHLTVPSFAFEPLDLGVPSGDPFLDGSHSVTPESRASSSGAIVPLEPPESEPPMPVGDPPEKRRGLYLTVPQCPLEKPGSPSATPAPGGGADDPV

T-type Ca2+ current = conditions: Avdonin et al., 2000; cited from earlier work
[2] = tested on: taxol-induced neuropathic pain model in mice; test: Taxol-induced neuropathic pain in mice, von Frey test; type: in vivo, mouse; conditions: 30 mg/kg I.P.
Protocol: FIG. 6A. Effects of EXAMPLE-115 on taxol (4 mg/kg, I.P.)-induced neuropathic pain model in mice. Mechanical pain thresholds of left hindpaws were assessed using von Frey monofilament test. Each mouse received either EXAMPLE-115 (3, 10 or 30 mg/kg, I.P.) or vehicle (2% DMSO in 0.5% HPC, I.P.; n=8 per group). Injection of taxol lowered mechanical pain thresholds.
FIG. 6B. Effects of EXAMPLE-123 on taxol (4 mg/kg, I.P.)-induced neuropathic pain model in a separate cohort of mice. Mechanical pain thresholds of left hindpaws were assessed using von Frey monofilament test. Each mouse received either EXAMPLE-123 (30 mg/kg, I.P., n=8) or vehicle (2% DMSO in 0.5% HPC, I.P.).
Chemotherapy-induced painful neuropathy is a common side effect associated with chronic treatment with Taxol (paclitaxel) or other anticancer drugs based on cytotoxicity. Taxol or paclitaxel is one of the most popular drugs used for the treatment of various cancers (Chaudhry et al., 1994). The chemotherapy-induced peripheral neuropathy manifests as chronic hyperalgesia and other sensory abnormalities. Taxol (Sigma, 4.0 mg/kg, I.P.) was dissolved in saline containing 5% DMSO (vehicle) and injected to mice (freshly prepared before injection).

Row | Compound | mechanical pain threshold, incision-induced pain [1] | inhibition at 1 µM (Cav3.2 channel) [%] | further results
1 | O=C(CCc1cccc(Cl)c1)Nc1nnc(-c2ccc(Cl)s2)o1 [Example 118, 3-(3-Chlorophenyl)-N-(5-(5-chlorothiophen-2-yl)-1,3,4-oxadiazol-2-yl)propanamide] | inhibited incision-induced inflammatory pain | 20 | –
2 | O=C(Nc1nnc(-c2ccc(Cl)s2)o1)N1C(=O)c2cc(Cl)c(Cl)cc2C1=O [Example 116, 5,6-Dichloro-N-(5-(5-chlorothiophen-2-yl)-1,3,4-oxadiazol-2-yl)-1,3-dioxoisoindoline-2-carboxamide] | inhibited incision-induced inflammatory pain | 10 | –
3 | COCC(=O)O[C@]1(CCN(C)CCCc2nc3ccccc3[nH]2)CCc2cc(F)ccc2[C@@H]1C(C)C [mibefradil] | – | – | potency of T-type inhibition relative to L-type Ca2+ current or voltage-gated Na+ current (T-type Ca2+ current): 3-10 times
4 | O=C(CNc1ccccc1)Nc1nnc(-c2ccccc2)o1 [Example 123, N-(5-Phenyl-1,3,4-oxadiazol-2-yl)-2-(phenylamino)acetamide] | – | – | duration of reduction of taxol-induced neuropathic pain [2]: at least 5 hours; mechanical pain threshold, taxol-induced neuropathic pain ([2]; taxol 4 mg/kg I.P.): caused significant effects on Taxol-induced pain; also recorded: reduced the taxol-induced neuropathic pain; pIC50 (Cav3.2 channel; Table 1, tested at at least 4 concentrations, read-out: IC50): 5.29

Source: patent US10562857B2 (AFASCI, Inc., priority 2015, dated 2020)
